Source: patent publication US20190145962A1, “PEPTIDE FOR […] OF AMYLOSPHEROIDS (ASPD), AND […] SCREENING METHOD” (TAO HEALTH LIFE PHARMA CO., LTD., priority 2016, published 2019)

Legend:
[1] = system: binding of ASPD to neurons (synthetic ASPD, primary cultured rat hippocampal neurons); assay: Evaluation of ASPD-inhibitory peptides: inhibition of binding of ASPD to cultured neurons (immunofluorescence imaging, titer); format: cell-based; conditions: for effect of inhibiting binding of ASPD to neurons: qualitative, evaluation of section 1; for ASPD-binding inhibitory ability (titer) compared with known ASPD neutralizing peptide 01 (HFNW): qualitative comparison with peptide 01, FIG. 3 and FIG. 4
Method: Evaluation of peptides that inhibits binding of ASPD to neurons was performed by the following method.
Step 1: Adding a liquid mixture containing peptide and ASPD, which have been mixed together and then incubated, to cultured mature neurons.
Step 2: Degenerating (immobilizing) the neurons.
Step 3: Immunostaining the neurons and the ASPD, respectively, to perform imaging.
Step 4: Analyzing the image to quantify the ASPD bound to the neurons.
Step 5: Evaluating the peptides using the amount of the ASPD bound and/or an analytical value obtained therefrom.
Steps 1 to 3 were performed as follows:
A liquid mixture of peptide and synthetic ASPD was incubated at 4° C. for 15 minutes to pretreat the ASPD and this liquid mixture was added to primary cultured rat hippocampal neurons cultured in a 96-well plate.
After incubation at 37° C. for 15 minutes in a CO2 incubator, the wells were washed with PBS. Then, 2% paraformaldehyde (50 μl/well) was added thereto for immobilization performed for 20 minutes at 37° C. and further 4% paraformaldehyde (50 μl/well) was added thereto for immobilization performed for 20 minutes at 37° C. After washing and blocking, a primary antibody solution containing anti-ASPD antibody (mASD3) and anti-MAP2 antibody (trade name: sc-20172, manufactured by SANTACRUZ) was added, which then was left overnight. After washing, a secondary antibody solution containing Alexa Fluoro (trademark) 568 anti-mouse antibody (trade name: A11031, manufactured by life technologies), Alexa Fluoro (trademark) 488 anti-rabbit antibody (trade name: A11034, manufactured by life technologies), and DAPI (trade name: D523, manufactured by Dojindo) was added and then fluorescence microscopic observation was performed.
Subsequently, steps 4 to 5 were performed as follows: From the microscopic observation data, a calibration curve as shown in FIG. 2 was drawn, an approximate curve was created within a range where linearity was maintained, and then ED50 was calculated. Using, as an indicator, “titer” that is defined by the ratio of ED50 of the ASPD treated with peptide to ED50 of the ASPD alone, the ASPD-binding inhibitory ability of peptide was evaluated.
Titer=ED50[ASPD+Peptide]/ED50[ASPD]

Synthetic ASPD = molecular target: T1, Synthetic ASPD (Homo sapiens, UniProt P05067); assay: Surface plasmon resonance (SPR), synthetic ASPD solid-phased on a chip, peptide as analyte; format: binding; conditions: class symbols, key not given; the dissociation constant (KD) was determined but is not given
T1 construct: can be produced by slowly rotating a liquid containing Aß
T1 sequence (P05067 672-713 limits assumed): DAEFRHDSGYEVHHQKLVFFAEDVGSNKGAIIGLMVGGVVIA
Method: Synthetic ASPD were solid-phased on a chip and each peptide shown in Table 3 below was allowed to flow as an analyte. Then the dissociation constant (KD) was determined by surface plasmon resonance (SPR).

Row | Substance | effect of inhibiting binding of ASPD to neurons [1] | ASPD-binding inhibitory ability (titer) compared with known ASPD neutralizing peptide 01 (HFNW) [1] | Results of SPR (Ability to Bind to ASPD) (Synthetic ASPD)
1 | HFDW [Peptide 18] | showed the effect of inhibiting binding of ASPD to neurons | – | –
2 | HFKW [Peptide 22] | – | superior | –
3 | HYNW [Peptide 08] | showed the effect of inhibiting binding of ASPD to neurons | – | –
4 | HFWW [Peptide 15] | showed the effect of inhibiting binding of ASPD to neurons | – | –
5 | HVNW [Peptide 11] | – | comparable to that of known ASPD neutralizing peptide 01 (HFNW) | –
6 | HNNW [reference compound] | could not inhibit the binding of ASPD to neurons | – | No binding was found.
7 | HHNW [Peptide 05] | showed the effect of inhibiting binding of ASPD to neurons | comparable to that of known ASPD neutralizing peptide 01 (HFNW) | –
8 | HFNW [Peptide 01, known ASPD neutralizing peptide, reference compound] | showed the effect of inhibiting binding of ASPD to neurons | – | –
9 | HTNW [Peptide 09] | showed the effect of inhibiting binding of ASPD to neurons | comparable to that of known ASPD neutralizing peptide 01 (HFNW) | –
10 | HANW [Peptide 10] | – | comparable to that of known ASPD neutralizing peptide 01 (HFNW) | –
11 | HPNW [reference compound] | could not inhibit the binding of ASPD to neurons | – | No binding was found.
12 | HFRW [Peptide 16] | – | superior | –
